Earlier results in patent US20250049933A1, “DRUG DELIVERY SYSTEM FOR TARGETED CANCER TREATMENT” (priority 2024, published 2025).

Key:
[1] = in vivo

Nc1ccn([C@@H]2O[C@H](CO)[C@@H](O)C2(F)F)c(=O)n1 [GEM, gemcitabine]
oral bioavailability [1]: 9%
overall survival (pancreatic cancer): 6.7 months
